In PubChem BioAssay AID1963843 (Molecular Pharmacology Branch, DTP, NCI, 2024):

Test system: 616215-338-R-J1-PDC complex spheroid viability
Assay: Anticancer human tumor 616215-338-R-J1-PDC patient-derived colon adenocarcinoma cell line growth inhibition [POLQ]
Conditions: for IC50: curve of first compound; for viability, T/C: stronger effect = lower value
Method: Multicellular complex tumor spheroid response to Polymerase (POL) inhibitors (novobiocin, ART-558, RP6685) in combination with a variety of drugs and investigational agents in selected tumor cell lines
The POL inhibitors (novobiocin, ART-558, and RP6685) were evaluated both individually and in combination with standard of care and investigational anticancer small molecules within a complex spheroid model of solid tumors. . Complex spheroids include a stromal component modeled by human endothelial cells (HUVEC) and fibroblasts modeled by human mesenchymal stem cells (MSCs). The concentration ranges selected for each drug and investigational agent were based upon clinically achievable concentrations if the clinical Cmax of the agent was known.
Compounds. The drugs and investigational agents: novobiocin (NSC847541), ART-558 (NSC835418), RP-6685 (NSC848927), peposertib (NSC802822), ceralasertib (NSC780249), elimusertib (NSC800525), camonsertib (NSC841442), AZD-1390 (NSC803789), olaparib (NSC753686), talazoparib (NSC767125), rucaparib (NSC756644), sotorasib (NSC818433), MRTX-1133 (NSC836407), SN-38 (NSC673596), topotecan (NSC609699), epotoside (NSC141540), doxorubicin (NSC123127), gemcitabine (NSC613327), 5-fluorouracil (NSC19893), paclitaxel (NSC125973), vemurafenib (NSC761431), MSA-2 (NSC828583), SN-011 (NSC837082), adavosertib (NSC754352), prexasertib (NSC758257), carboplatin (NSC241240) and oxaliplatin (NSC266046), were obtained from the National Cancer Institute (NCI) Developmental Therapeutics Program Chemical Repository (21). The FDA-approved anticancer drug set is available from the Developmental Therapeutics Program at https://dtp.cancer.gov/organization/dscb/obtaining/. […] The stock solutions were prepared in dimethyl sulfoxide (DMSO, Sigma-Aldrich, St. Louis, MO, cat. D2650), except for the platinum compounds which were prepared in saline (Quality Biological, Gaithersburg, MD, cat. 114-055-101), at 800-fold the tested concentration and stored at -70 degrees C prior to their use. All drugs and investigational agents were tested over a range starting from a high concentration at or near the clinical Cmax and decreasing in half-log increments. If the clinical Cmax for an agent had not been determined, the highest concentration tested was 10 microM, except for SN-38, which was tested at a high concentration of 1 microM.
Cell Culture. All cells were maintained in an incubator at 37 degrees C and 5% CO2 with 95% humidity. The PDC lines were cultured according to standard operating procedures established by the NCI PDMR (https://pdmr.cancer.gov). Table 3 of the manuscript, lists the cell lines along with the number of the three cell types plated to form the mct-spheroids and media for tumor cell growth. After thawing, all PDC lines, except 997537-175-T-J1-PDC and 415267-285-R-J2-PDC, were cultured in Matrigel-coated flasks prepared with a working solution of 1X Ham's F-12 nutrient mix, without supplementation (Thermo Fisher Scientific, cat. 11765054), 100 U/mL penicillin-streptomycin (Thermo Fisher Scientific, cat. 15140122), and 2.5% Matrigel (Corning Inc., Corning, NY, cat. 354248) for the first three passages. The two PDC lines 997537-175-T-J1-PDC and 415267-285-R-J2-PDC were cultured on uncoated flasks. The 857933-349-R-J2-PDC line was cultured in 6C/Colon 1B media containing advanced DMEM/F-12 (Thermo Fisher Scientific, cat. 12634028), 10 mM HEPES (Thermo Fisher Scientific, cat. 15630080), 1X GlutaMAX supplement (Thermo Fisher Scientific, cat. 35050061), 0.1 mg/mL primocin (InvivoGen, San Diego, CA, cat. ant-pm-2), 10% defined fetal bovine serum, heat inactivated (HyClone Laboratories Inc., Logan, UT, cat. SH30070.03HI), 50% L-WRN conditioned media (ATCC, cat. CRL-3276), 1.25 mM N-Acetyl-L-cysteine (Sigma-Aldrich, cat. A9165), 10 mM nicotinamide (Sigma-Aldrich, cat. N0636), 1X B-27 supplement (Thermo Fisher Scientific, cat. 17504044), 1X N-2 supplement (Thermo Fisher Scientific, cat. […]
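Note: spheroids exposed to compounds for one week before readout.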
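Throughout, for viability, T/C: percent viability relative to DMSO vehicle wells taken as 100%.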

SMILES: CC(=O)O[C@H]1C(=O)[C@@]2(C)[C@H]([C@H](OC(=O)c3ccccc3)[C@]3(O)C[C@H](OC(=O)[C@H](O)[C@@H](NC(=O)c4ccccc4)c4ccccc4)C(C)=C1C3(C)C)[C@]1(OC(C)=O)CO[C@@H]1C[C@@H]2O + COC1C(OC(N)=O)C(O)C(Oc2ccc3c(O)c(NC(=O)c4ccc(O)c(CC=C(C)C)c4)c(=O)oc3c2C)OC1(C)C
- IC50 (second compound 0.0316 µM): 41.8 nM
- IC50 (second compound 0.1 µM): 45.4 nM
- IC50 (second compound 0.316 µM): 25.2 nM
- IC50 (second compound 1 µM): 26.9 nM
- IC50 (second compound 3.16 µM): 29.3 nM
- IC50 (second compound 10 µM): 29.8 nM
- viability, T/C (second compound 0.0316 µM, first compound 0.00949 µM): 76.1%
- viability, T/C (second compound 0.0316 µM, first compound 0.03 µM): 52.6%
- viability, T/C (second compound 0.0316 µM, first compound 0.0949 µM): 41%
- viability, T/C (second compound 0.0316 µM, first compound 0.3 µM): 38.6%
- viability, T/C (second compound 0.0316 µM, first compound 0.949 µM): 34.3%
- viability, T/C (second compound 0.0316 µM, first compound 3 µM): 30.5%
- viability, T/C (second compound 0.1 µM, first compound 0.00949 µM): 89.7%
- viability, T/C (second compound 0.1 µM, first compound 0.03 µM): 54%
- viability, T/C (second compound 0.1 µM, first compound 0.0949 µM): 42.5%
- viability, T/C (second compound 0.1 µM, first compound 0.3 µM): 35.3%
- viability, T/C (second compound 0.1 µM, first compound 0.949 µM): 37.1%
- viability, T/C (second compound 0.1 µM, first compound 3 µM): 32.6%
- viability, T/C (second compound 0.316 µM, first compound 0.00949 µM): 97.3%
- viability, T/C (second compound 0.316 µM, first compound 0.03 µM): 41.5%
- viability, T/C (second compound 0.316 µM, first compound 0.0949 µM): 40.4%
- viability, T/C (second compound 0.316 µM, first compound 0.3 µM): 38.3%
- viability, T/C (second compound 0.316 µM, first compound 0.949 µM): 38.5%
- viability, T/C (second compound 0.316 µM, first compound 3 µM): 31.8%
- viability, T/C (second compound 1 µM, first compound 0.00949 µM): 96.5%
- viability, T/C (second compound 1 µM, first compound 0.03 µM): 44.1%
- viability, T/C (second compound 1 µM, first compound 0.0949 µM): 37.1%
- viability, T/C (second compound 1 µM, first compound 0.3 µM): 33.4%
- viability, T/C (second compound 1 µM, first compound 0.949 µM): 31.4%
- viability, T/C (second compound 1 µM, first compound 3 µM): 31.7%
- viability, T/C (second compound 3.16 µM, first compound 0.00949 µM): 84.2%
- viability, T/C (second compound 3.16 µM, first compound 0.03 µM): 48.2%
- viability, T/C (second compound 3.16 µM, first compound 0.0949 µM): 40.8%
- viability, T/C (second compound 3.16 µM, first compound 0.3 µM): 31.4%
- viability, T/C (second compound 3.16 µM, first compound 0.949 µM): 36.1%
- viability, T/C (second compound 3.16 µM, first compound 3 µM): 32.2%
- viability, T/C (second compound 10 µM, first compound 0.00949 µM): 87.6%
- viability, T/C (second compound 10 µM, first compound 0.03 µM): 48.3%
- viability, T/C (second compound 10 µM, first compound 0.0949 µM): 42.2%
- viability, T/C (second compound 10 µM, first compound 0.3 µM): 34.2%
- viability, T/C (second compound 10 µM, first compound 0.949 µM): 32.7%
- viability, T/C (second compound 10 µM, first compound 3 µM): 36.5%
